Data on one compound can be found in patent EP0209430A2, “L-di or tripeptides possessing a biological activity for use in human and veterinary medicines, process for their obtention and medicines containing them” (INSTITUT DE RECHERCHES CHIMIQUES ET BIOLOGIQUES APPLIQUEES …, priority 1985, dated 1987).

The structures appear in SMILES notation. ≈ marks a conversion by molar mass, not a printed value.

Test in all cases: MIC (C.M.I.) in agar medium
Format in all cases: cell-based

The test system of experiment [1] is E. Coli. The source says:
(§1) Par exemple, nous décrivons les C.M.I. (concentrations minimales inhibitrices) en µg/ml, obtenues en milieu gélosé pour un inoculum de 10^4 à 10^5 bactéries par millilitre, du composé B 1067.

Experiment [2] concerns S. aureus. The conditions noted are these: Staphylococcus aureus.
Text: as §1

The test system of experiment [3] is Serratia. The conditions noted are these: Serratia 22.579, inoculum 10^4 à 10^5 bacteria per ml.
Text: as §1

For experiment [4], the system named is S. faecalis. The conditions noted are these: Enterococcus faecalis, ATCC14508, S. faecalis ATCC 14508, inoculum 10^4 à 10^5 bacteria per ml.
Text: as §1

For experiment [5], the system named is Klebsiella p. The conditions noted are these: Klebsiella p. La 433, inoculum 10^4 à 10^5 bacteria per ml.
Text: as §1

The subject of experiment [6] is Salmonella E. The settings on record: Salmonella E. CNCM 57.29, inoculum 10^4 à 10^5 bacteria per ml.
Text: as §1

Turning to `C[C@H](N)C(=O)N[C@@H](C)P(=O)(O)O` [B 1067, Selde l'amino-2-(hydroxyméthyl)-2-propanediol-1,3 avec l'acide L-Alanyl-L-(amino-1)-éthylphosphonique], in experiment [1] (E. Coli CNCM 53.126, inoculum 10^4 à 10^5 bacteria per ml), the C.M.I. is listed as 0,25 µg/ml. For the same compound, the MIC in experiment [1] (Escherichia coli, E. Coli CNCM 54.8, inoculum 10^4 à 10^5 bacteria per ml) is 0.25 µg/mL (≈ 1.27 µM); in experiment [2] (ATCC63, S. aureus ATCC 63.58 P, inoculum 10^4 à 10^5 bacteria per ml), 32 µg/mL (≈ 163 µM); in experiment [2] (ATCC29213, S. aureus ATCC 29213, inoculum 10^4 à 10^5 bacteria per ml), 8 µg/mL (≈ 40.8 µM); in experiment [2] (S. aureus CNCM 52.149, inoculum 10^4 à 10^5 bacteria per ml) it was 32 µg/mL (≈ 163 µM); in experiment [3] it was 32 to 64 µg/mL (≈ 163 to 326 µM); in experiment [4], 32 µg/mL (≈ 163 µM). The values for the MIC in experiment [5] and in experiment [6] were 16 µg/mL (≈ 81.6 µM) and 1 µg/mL (≈ 5.1 µM), respectively.

What is called MIC is the least concentration at which growth counts as inhibited. Higher therefore signals weaker potency.
